Results as given in patent US20030220373A1, “Therapeutic uses of PPAR mediators” (priority 2000, published 2003).

Key:
[1] = system: ABC1 expression; assay: ABC1 up-regulation in human THP-1 cells by PPAR mediators (Northern blotting; also quantitative PCR Taqman); assay type: cell-based; conditions: for up-regulation of ABC1 expression: treatment at 1 and 10 μM, Northern blotting (FIG. 1, FIG. 2)
Description: THP-1 cells, a human monocytic cell line, are maintained in RPMI with 10% FCS (fetal calf serum)/[…] gentamycin/25 mM Hepes. Cells are plated at approximately 1×10^5 per cm^2 in RPMI/10% charcoal-stripped FCS (Hyclone) the presence or absence of 100 ng/ml PMA (phorbol myritic acid)(Gibco BRL) and the indicated concentrations of test compound or DMSO (dimethyl sulfoxide). Test compounds are refreshed daily. Alternatively, cells are incubated with […] AcLDL (acetylated LDL) as positive control. After 48 or 72 hours, cellular RNA is isolated with Trizol® (Gibco) according to the manufacturer's instructions. Total RNA ([…]) is subjected to Northern blotting. The fragment used as a probe is a 431bp PCR product of ABC1 corresponding to nucleotides (nt's) 3306-3737 of Genbank Ace # AJ012376 (T. Langmann et al,1999, BBRC 257, 29-33). The sequences of the primers usd to generate the fragment are: […] nt. pos 3306-3326 (forward); […] nt. pos 3737-3711 (reverse). Blots are hybridized with this probe labelled with [a32P]dCTP (Amersham) with ExpressHyb® (Clontech, Palo Alto Calif.) according to manufacturer's protocol, washed, and exposed to X-ray film. Resulting signals are quantitated by densitometry.
A representative example of a Northern blotting analysis is represented in FIG. 1 and corresponding graph bar in FIG. 2.

[2] = system: ABC1 expression; assay: ABC1 up-regulation in human primary hepatocytes (RNA analysis); assay type: cell-based; conditions: human primary hepatocytes (FIG. 4)
Description: Assay Example 2: ABC 1 Up-regulation in Human Hepatocytes and Human Macrophages Derived Monocytes by Fenofibric Acid, and for Wy 14,643 and Related Cholesterol Efflux in Macrophages Human liver specimens are collected from healthy multiorgan donors for transplantation who died after severe traumatic brain injury. Hepatocytes are obtained by a two-step collagenase perfusion (REF). Cells are resuspended in minimal essential medium with Earl's salts with 10% FCS, 2 mM glutamine, […] gentamycin, seeded at density of 1.5×10^5 cells/cm^2 in plastic culture dishes coated with 20 mg rat tail collagene type I (Sigma).Medium is renewed after 4 hours of adhesion. After 20 hours the medium is discarded and differents compounds added at the indicated concentrations in serum-free medium. Total cellular RNA is extracted from differentated macrophages treated for 6 hours with different compounds using the RNA plus kit (Bioprobe System, Montreuil, france). RNA from human hepatocytes are prepared as described by Chomczynski and Sacchi. For RT-PCR analysis, total RNA is reverse transcribed using random hexamer primers and Superscript reverse transcriptase (Life Technologies) as sebsequently amplified by PCR. The resulting products are separated on a 1% agrose gel and stained with ethidium bromide.

| SMILES | melting point | also measured |
| --- | --- | --- |
| N#Cc1cccc(OCc2cccc(OCc3ccc4ccccc4n3)c2)c1 [Example 7, 3-[3-(2-quinolinylmethyloxy)benzyloxy]benzonitrile] | 86 to 87 °C |  |
| COC(=O)c1ccc(OCc2cccc(OCc3ccc4ccccc4n3)c2)c(OC)c1 [Example 14, methyl 3-methoxy-4-(3-(2-quinolinylmethyloxy)benzyloxy)-benzoate] | 100 to 101 °C |  |
| COc1cc(C(=O)O)ccc1OCc1cccc(OCc2ccc3ccccc3n2)c1 [Example 15, 3-methoxy-4-(3-(2-quinolinylmethyloxy)benzyloxy)benzoic acid] | 188 to 190 °C |  |
| COC(=O)c1cccc(COc2cccc(OCc3ccc4ccccc4n3)c2)c1 [Example 19, methyl 3-(3-(2-quinolinylmethyloxy)phenoxymethyl)benzoate] | 93 to 94 °C |  |
| O=C(O)c1cccc(COc2cccc(OCc3ccc4ccccc4n3)c2)c1 [Example 20, 3-(3-(2-quinolinylmethyloxy)phenoxymethyl)-benzoic acid] | 149 to 151 °C |  |
| c1cc(OCc2ccc3ccccc3n2)cc(OCc2ccccc2-c2nnn[nH]2)c1 [Example 28, 5-(2-(3-(2-quinolinylmethyloxy)phenoxymethyl)phenyl)tetrazole] | 166 to 170 °C |  |
| Cc1cccc(COc2cccc(OCc3ccc4ccccc4n3)c2)c1C(=O)O [RPR52] |  | up-regulation of ABC1 expression [1]: up-regulation of ABC1 expression |
| Cc1cc(OCc2ccccc2)cc(OCc2cccc(OCc3ccc4ccccc4n3)c2)c1C(=O)O [RPR64] |  | up-regulation of ABC1 expression [1]: up-regulation of ABC1 expression |
| Cc1cccc(Nc2cc(Cl)nc(SCC(=O)O)n2)c1C [Wy 14,643, pyrinixic acid] |  | ABC1 up-regulation [2]: ABC1 up-regulation |
| c1ccc(Cc2nnn[nH]2)c(COc2ccc(OCc3ccc4ccccc4n3)cc2)c1 [compound of formula VI, 5-[2-(4-(2-quinolinylmethoxy)phenoxymethyl)benzyl]tetrazole] |  | increase in up-regulation of ABC 1 expression relative to treatment with DMSO ([1]; relative to DMSO): fourteen fold increase |

The next lines start with results.

| melting point | SMILES | also measured |
| --- | --- | --- |
| 169 to 172 °C | c1cc(COc2cccc(-c3nnn[nH]3)c2)cc(OCc2ccc3ccccc3n2)c1 [Example 10, 5-[3-(3-(2-quinolinylmethyloxy)benzyloxy)-phenyl]tetrazole] |  |
| 210 to 213 °C | c1ccc2nc(COc3ccc(COc4ccc(-c5nnn[nH]5)cc4)cc3)ccc2c1 [Example 11, 5-[4-(4-(2-quinolinylmethyloxy)benzyloxy)phenyl]tetrazole] |  |
| 179 to 181 °C | c1ccc2nc(COc3ccc(COc4ccc(Cc5nnn[nH]5)cc4)cc3)ccc2c1 [Example 12, 5-[4(4-(2-quinolinylmethyloxy)benzyloxy)benzyl]tetrazole] |  |
| 145.5 to 147 °C | c1cc(OCc2ccc3ccccc3n2)cc(OCc2ccccc2Cc2nnn[nH]2)c1 [Example 28, 5-(2-(3-(2-quinolinylmethyloxy)phenoxymethyl)benzyl)tetrazole] |  |
| 115 °C (dec.) | c1cc(OCc2cccc(-c3nnn[nH]3)c2)cc(OCc2ccc3ccccc3n2)c1 [Example 28, 5-(3-(3-(2-quinolinylmethyloxy)phenoxymethyl)phenyl)tetrazole] |  |
| 149 to 151 °C | c1cc(OCc2ccc(Cc3nnn[nH]3)cc2)cc(OCc2ccc3ccccc3n2)c1 [Example 28, 5-(4-(3-(2-quinolinylmethyloxy)phenoxymethyl)benzyl)tetrazole] |  |
| 131 to 132 °C | c1cc(COc2ccc(OCc3ccc4ccccc4n3)cc2)cc(OCc2nnn[nH]2)c1 [Example 32, 5-(3-(4-(2-quinolinylmethyloxy)phenoxymethyl)phenoxymethyl)tetrazole] |  |
